The values that follow come from US9273075B2, “Prodrugs of 1,4-benzodiazepinone compounds” (BRISTOL-MYERS SQUIBB COMPANY, priority 2012, dated 2016).

Series [1] in a line: High Throughput Metabolic Stability Panel, mouse liver microsomes. The settings on record: 0.5 μM compound, mouse liver microsomes, ten-minute incubation, NADPH. On the technique in general: Liver microsomes are vesicles of endoplasmic reticulum, rich in cytochrome P450 enzymes.
For series [2] the following is noted: 0.5 μM compound, human liver microsomes, ten-minute incubation, NADPH.
Experimental: The metabolic stability assay evaluated CYP-mediated metabolic stability in vitro using human, rat, mouse, dog, and/or monkey microsomes after a ten-minute incubation. Each compound was tested in duplicate.
Test compound was received as a 3.5 mM stock solution in 100 percent DMSO. […] Each compound was tested in duplicate separately in each of three species in the Metabolic Stability-Human, Rat, and Mouse assay suite or as individual species in the Metabolic Stability-Dog or Metabolic Stability-Monkey suites. Compound, NADPH, and liver microsome solutions were combined for incubation in three steps:
The reaction was initiated by the addition of 17 μl of pre-warmed 10 mM NADPH solution in 100 mM NaPi, pH 7.4.
The reaction components were mixed well, and 75 μl of the reaction mixture was immediately transferred into 150 μl quench/stop solution (zero-time point, T0). Reactions were incubated at 37° C. for 10 minutes and then an additional 75 μl aliquot was transferred into 150 μl quench solution. Acetonitrile containing 100 μM DMN (a UV standard for injection quality control), was used as the quench solution to terminate metabolic reactions.
Quenched mixtures were centrifuged at 1500 rpm (˜500×g) in an ALLEGRA® X-12 centrifuge, SX4750 rotor (Beckman Coulter Inc., Fullerton, Calif.) for fifteen minutes to pellet denatured microsomes. A volume of 90 μl of supernatant extract, containing the mixture of parent compound and its metabolites, was then transferred to a separate 96-well plate for UV-LC/MS-MS analysis to determine the percent of parent compound that remained in the mixture.
Peak integration was performed with the XCALIBUR® software. The percent remaining calculation was performed by comparing the LC-MS/MS peak areas from the T10minute samples to those from the T0minute samples for each compound.
A set of three compounds was tested along with the test compound in each assay plate.
In series [3] the test system is TALL1 Human T-cell acute lymphoblastic leukemia. In words: Human tumor xenograft in mice: TALL1. It is filed as in vivo. The settings on record: FIG. 1; dosed intravenously QD×3, weekly×3; Compound A 3 mg/kg; Example 12 1.5, 3, 6 mg/kg; active = TGI≧50%. Background: Xenograft models place foreign cells or tissue in a host animal.
A short description of series [4]: Thermodynamic Equilibrium Aqueous Solubility Assay. The series is classed as physicochemical. Conditions: thermodynamic from solid. The method, then:
Standards Preparation: The calibration standard was prepared by accurately weighing 0.5-0.7 mg of sample in 5 ml of methanol. If the material was not fully soluble in methanol, other solvents such as DMSO or mixed solvents were used.
Test Sample Preparation: An excess amount of powder prodrug was equilibrated with 1 mL of buffer (50 mM potassium phosphate, pH 6.5 and 50 mM sodium acetate, pH 4.0) in a 2 mL glass vial. The solution was sonicated and vortexed for ˜30 seconds. The vials were shaken at 300 rpm at room temperature for 24 hrs. The exact incubation time for a specific prodrug was based on the prior aqueous stability data. If the compound was stable in the buffer up to 24 hrs, then the solubility was measured after 24 hrs, otherwise kinetic solubility data was reported. The final saturated solution was then transferred to a 1.5 mL Eppendorf tube and centrifuged for ˜2 min. at 10000 rpms. The supernatant from the saturated solution was transferred to a glass HPLC vial and the solubility was analyzed by HPLC using a four point calibration curve.

A short description of another series: Solution Stability Assay. It is filed as physicochemical. The procedure: Acetonitrile Stock Solution: Acetonitrile Stock Solution of the prodrug was prepared by dissolving 1.5-2.0 mg of weighted compound in 5.0 mL of acetonitrile in a 5 mL volumetric flask.
pH 6.5 Buffer Working Solution: A pH 6.5 Buffer Working Solution of drug was prepared by adding 1.5 mL of the Acetonitrile Stock Solution to 3.5 mL of stability buffer (50 mM potassium phosphate, pH 6.5) in a 10 mL vial, and mixing. Using a 3 mL syringe, ˜3 mL of solution was withdrawn and filtered using the Gelman 0.45 μm syringe filter into a clean 1.5 mL LC vial. This filtered solution will was used to evaluate the prodrug degradation throughout the course of the study. Target concentration: 90-120 μg/mL (70% Aqueous: 30% Acetonitrile)
pH 4.0 Acidic Working Solution: A pH 4.0 Working Solution of drug was prepared by adding 1.5 mL of the Acetonitrile Stock Solution to 3.5 mL of stability buffer (50 mM sodium acetate, pH 4.0) in a 10 mL vial and mixing. Using a 3 mL syringe, ˜3 mL of solution was withdrawn and filtered using the Gelman 0.45 μm syringe filter into a clean 1.5 mL LC vial. This filtered solution was used to evaluate the prodrug degradation throughout the course of the study. Target concentration: 90-120 μg/mL (70% Aqueous: 30% Acetonitrile)
Experimental Methods: Following the sample preparation procedure described above a single sample (n=1) was prepared for each pH condition. The samples were then placed in an HPLC autosampler maintained at 37° C. and samples were analyzed over a 24 h period. Prodrug remaining (%) was reported relative to the initial peak area (t=0 h). In cases where a conversion to parent half-life could be calculated, a t1/2 was generated. Confirmation of the conversion to parent from the prodrug was obtained by LCMS and HPLC analysis of the final timepoint samples.
Typical LC parameters are shown below: • HPLC System: HP1100 Series, Hewlett Packard., Heated autosampler • Analytical column: Synergi 4 u Hydro C18, 4.6 mm×5.0 cm, PHENOMENEX® • Column temperature: 40° C. • Autosampler temp: 37° C. • Flow rate: 1.0 mL/min • Injection Volume: 10 μL • Mobile Phase: A: Acetonitrile • B: 0.1% Phosphoric acid in water • Run Time: 14.0 minutes Typical LCMS parameters are shown below: • LC-MS System: Surveyor HPLC system, ThermoFinnigan LCQ Deca XP Max (Ion trap) • Analytical column: Synergi 4 u Hydro C18, 4.6 mm×5.0 cm, PHENOMENEX® • Column temperature: 40° C. • Autosampler temp: 22° C. • Flow rate: 1.0 mL/min • Injection Volume: 5 μL • Mobile Phase: A: 95% Acetonitrile/5% 20 mM Ammonium Acetate • B: 5% Acetonitrile/95% 20 mM Ammonium Acetate LCQ Parameters: • Sheath Flow Rate: 81.64 • Aux/Sweep Flow Rate: 19.01 • Current (uA): 10.89 • Voltage (kV): 5.00 • Capillary (C): 348.10 • Capillary Voltage (V): 30.44

Setting [5] is: potassium phosphate buffer, pH 6.5, aqueous buffer, read-out: Solubility (mg/mL) pH 6.5.
[6] abbreviates: sodium acetate buffer, pH 4, aqueous buffer, read-out: Solubility (mg/mL) pH 4.0.
Where [7] appears, read: potassium phosphate buffer with 30% acetonitrile, pH 6.5, read-out: Stability (t1/2, h) pH 6.5 (converted).
Where [8] appears, read: sodium acetate buffer with 30% acetonitrile, pH 4, read-out: Stability (t1/2, h) pH 4.0 (converted).

In brackets after ≈: the same amount, converted by molar mass. Where two headings read alike, the source gives them in different places.

Turning to `NC(=O)[C@@H](CCC(F)(F)F)[C@@H](CCC(F)(F)F)C(=O)N[C@H]1N=C(c2ccccc2)c2ccccc2NC1=O` [Compound B, (2R,3S)—N-((3S)-2-Oxo-5-phenyl-2,3-dihydro-1H-1,4-benzodiazepin-3-yl)-2,3-bis(3,3,3-trifluoropropyl)succinamide], the “0.5 μM MsLM (% Remaining)” value in series [1] came to 86%. For the same compound, in series [2], the “0.5 μM HLM (% Remaining)” value was determined as 88%.

Regarding `CN1C(=O)[C@@H](NC(=O)[C@H](CCC(F)(F)F)[C@H](CCC(F)(F)F)C(=O)NSC[C@H](N)C(=O)O)N=C(c2ccccc2)c2ccccc21` [Example 12, S-(((2S,3R)-6,6,6-Trifluoro-3-(((3S)-1-methyl-2-oxo-5-phenyl-2,3-dihydro-1H-1,4-benzodiazepin-3-yl)carbamoyl)-2-(3,3,3-trifluoropropyl)hexanoyl)amino)-L-cysteine], the “in vivo efficacy against TALL1, activity as defined by the tumor growth inhibition (TGI)” value in series [3] is “active”. Also, the solubility at 24 h in series [4] (setting [5]) came out at 0.63 mg/mL (≈ 932 µM); in series [4] (setting [6]) it was 0.82 mg/mL (≈ 1210 µM). Further, the figures for the half-life in “Solution Stability Assay” (setting [7]) and in the series “Solution Stability Assay” (setting [8]) were 251 h and 376 h, respectively.

Take `N[C@@H](CSNC(=O)[C@@H](CCC(F)(F)F)[C@@H](CCC(F)(F)F)C(=O)N[C@H]1N=C(c2ccccc2)c2ccccc2NC1=O)C(=O)O` [Example 9, S-(((2S,3R)-6,6,6-Trifluoro-3-(((3S)-2-oxo-5-phenyl-2,3-dihydro-1H-1,4-benzodiazepin-3-yl)carbamoyl)-2-(3,3,3-trifluoropropyl)hexanoyl)amino)-L-cysteine]: the solubility at 24 h was determined as 0.64 mg/mL (≈ 967 µM) in series [4] (setting [5]) and 0.75 mg/mL (≈ 1130 µM) in series [4] (setting [6]). For the same compound, the figures for the half-life in the series “Solution Stability Assay” (setting [7]) and in the series “Solution Stability Assay” (setting [8]) were 58 h and 335 h, respectively.

Consider `NC(=O)[C@@H](CCC(F)(F)F)[C@@H](CCC(F)(F)F)C(=O)N[C@H]1N=C(c2ccccc2)c2ccccc2N(COC(=O)c2ccc(COP(=O)(O)O)cc2)C1=O` [Example 2, ((3S)-3-(((2R,3S)-3-Carbamoyl-6,6,6-trifluoro-2-(3,3,3-trifluoropropyl)hexanoyl)amino)-2-oxo-5-phenyl-2,3-dihydro-1H-1,4-benzodiazepin-1-yl)methyl 4-((phosphonooxy)methyl)benzoate], for which the solubility at 24 h in series [4] (setting [5]) is 0.42 mg/mL (≈ 534 µM); in series [4] (setting [6]) it was 0.99 mg/mL (≈ 1260 µM). Besides, the half-life in the series “Solution Stability Assay” (setting [7]) and in the series “Solution Stability Assay” (setting [8]) was above 500 h in each case.

Turning to `CN1C(=O)[C@@H](NC(=O)[C@H](CCC(F)(F)F)[C@H](CCC(F)(F)F)C(=O)NCN2CCC(N(C)C)C2)N=C(c2ccccc2)c2ccccc21` (stereo partly drawn) [Example 21, (2S,3R)—N-((3-(Dimethylamino)-1-pyrrolidinyl)methyl)-N′-((3S)-1-methyl-2-oxo-5-phenyl-2,3-dihydro-1H-1,4-benzodiazepin-3-yl)-2,3-bis(3,3,3-trifluoropropyl)succinamide], the values for the solubility at 24 h in series [4] (setting [5]) and in series [4] (setting [6]) were 0.63 mg/mL (≈ 923 µM) and 0.64 mg/mL (≈ 937 µM), respectively. The half-life in “Solution Stability Assay” (setting [7]) was 376 h; in “Solution Stability Assay” (setting [8]), 334 h.

With `COC(=O)[C@@H](N)CSNC(=O)[C@@H](CCC(F)(F)F)[C@@H](CCC(F)(F)F)C(=O)N[C@H]1N=C(c2ccccc2)c2ccccc2N(C)C1=O` [Example 14, Methyl S-(((2S,3R)-6,6,6-trifluoro-3-(((3S)-1-methyl-2-oxo-5-phenyl-2,3-dihydro-1H-1,4-benzodiazepin-3-yl)carbamoyl)-2-(3,3,3-trifluoropropyl)hexanoyl)amino)-L-cysteinate], the solubility at 24 h in series [4] (setting [5]) was 0.02 mg/mL (≈ 29 µM); in series [4] (setting [6]) it was 0.42 mg/mL (≈ 609 µM). The half-life in “Solution Stability Assay” (setting [7]) is 44 h; in the series “Solution Stability Assay” (setting [8]), 73 h.

As for `CN1C(=O)[C@@H](NC(=O)[C@H](CCC(F)(F)F)[C@H](CCC(F)(F)F)C(=O)NCN2CCCCC2)N=C(c2ccccc2)c2ccccc21` [Example 16, (2R,3S)—N-((3S)-1-Methyl-2-oxo-5-phenyl-2,3-dihydro-1H-1,4-benzodiazepin-3-yl)-N′-(1-piperidinylmethyl)-2,3-bis(3,3,3-trifluoropropyl)succinamide], the values for the solubility at 24 h in series [4] (setting [5]) and in series [4] (setting [6]) were 0.01 mg/mL (≈ 15.3 µM) and 0.23 mg/mL (≈ 352 µM), respectively. Besides, the half-life in “Solution Stability Assay” (setting [7]) was 16 h; in the series “Solution Stability Assay” (setting [8]), 250 h.

`CC(C)(N)C(=O)OCN1C(=O)[C@@H](NC(=O)[C@H](CCC(F)(F)F)[C@H](CCC(F)(F)F)C(N)=O)N=C(c2ccccc2)c2ccccc21` [Example 4, ((3S)-3-(((2R,3S)-3-Carbamoyl-6,6,6-trifluoro-2-(3,3,3-trifluoropropyl)hexanoyl)amino)-2-oxo-5-phenyl-2,3-dihydro-1H-1,4-benzodiazepin-1-yl)methyl 2-methylalaninate]: the solubility at 24 h is above 1.07 mg/mL in series [4] (setting [5]) and above 3.23 mg/mL in series [4] (setting [6]). Further, the half-life was 8 h in “Solution Stability Assay” (setting [7]) and 64 h in “Solution Stability Assay” (setting [8]).

Take `CN1C(=O)[C@@H](NC(=O)[C@H](CCC(F)(F)F)[C@H](CCC(F)(F)F)C(=O)NSCCN)N=C(c2ccccc2)c2ccccc21` [Example 11, (2S,3R)—N-((2-Aminoethyl)sulfanyl)-N′-((3S)-1-methyl-2-oxo-5-phenyl-2,3-dihydro-1H-1,4-benzodiazepin-3-yl)-2,3-bis(3,3,3-trifluoropropyl)succinamide]: the solubility at 24 h in series [4] (setting [5]) was above 3.4 mg/mL; in series [4] (setting [6]) it was above 2.67 mg/mL. Further, the figures for the half-life in “Solution Stability Assay” (setting [7]) and in “Solution Stability Assay” (setting [8]) were 29 h and 215 h, respectively.

For the compound `CN1C(=O)[C@@H](NC(=O)[C@H](CCC(F)(F)F)[C@H](CCC(F)(F)F)C(=O)NCN2CCC(N)CC2)N=C(c2ccccc2)c2ccccc21` [Example 17, (2S,3R)—N-((4-Amino-1-piperidinyl)methyl)-N′-((3S)-1-methyl-2-oxo-5-phenyl-2,3-dihydro-1H-1,4-benzodiazepin-3-yl)-2,3-bis(3,3,3-trifluoropropyl)succinamide], the solubility at 24 h in series [4] (setting [5]) was above 1.9 mg/mL; in series [4] (setting [6]), 0.56 mg/mL (≈ 837 µM). The half-life was 300 h in “Solution Stability Assay” (setting [7]) and 250 h in “Solution Stability Assay” (setting [8]).

`CN(C)CCSNC(=O)[C@@H](CCC(F)(F)F)[C@@H](CCC(F)(F)F)C(=O)N[C@H]1N=C(c2ccccc2)c2ccccc2N(C)C1=O` [Example 13, (2S,3R)—N-((2-(Dimethylamino)ethyl)sulfanyl)-N′-((3S)-1-methyl-2-oxo-5-phenyl-2,3-dihydro-1H-1,4-benzodiazepin-3-yl)-2,3-bis(3,3,3-trifluoropropyl)succinamide]: the solubility at 24 h in series [4] (setting [5]) was 0.94 mg/mL (≈ 1420 µM); in series [4] (setting [6]), above 0.92 mg/mL. Also, the half-life is 108 h in “Solution Stability Assay” (setting [7]) and 334 h in “Solution Stability Assay” (setting [8]).
